# Experimental data: patent publication US4761403A, “Lipoxygenase inhibiting compounds” (Abbott Laboratories, priority 1986, dated 1988)
# Experiments:
# Format in all cases: biochemical
# 5-lipoxygenase = target: T1, 5-lipoxygenase (Rattus norvegicus, UniProt P12527); experiment: 5-lipoxygenase inhibition, 20,000 g supernatant from homogenized RBL-1 cells, radiolabeled arachidonic acid; details: for IC50: 5-lipoxygenase, RBL-1 supernatant, 50% intercept from linear regression of % inhibition vs log concentration
# T1 construct: 20,000 g supernatant from 7.5 million homogenized RBL-1 cells; endogenous in cells; host or cells: RBL-1 cells, 20,000 g supernatant of homogenate
# T1 sequence (P12527 1-673): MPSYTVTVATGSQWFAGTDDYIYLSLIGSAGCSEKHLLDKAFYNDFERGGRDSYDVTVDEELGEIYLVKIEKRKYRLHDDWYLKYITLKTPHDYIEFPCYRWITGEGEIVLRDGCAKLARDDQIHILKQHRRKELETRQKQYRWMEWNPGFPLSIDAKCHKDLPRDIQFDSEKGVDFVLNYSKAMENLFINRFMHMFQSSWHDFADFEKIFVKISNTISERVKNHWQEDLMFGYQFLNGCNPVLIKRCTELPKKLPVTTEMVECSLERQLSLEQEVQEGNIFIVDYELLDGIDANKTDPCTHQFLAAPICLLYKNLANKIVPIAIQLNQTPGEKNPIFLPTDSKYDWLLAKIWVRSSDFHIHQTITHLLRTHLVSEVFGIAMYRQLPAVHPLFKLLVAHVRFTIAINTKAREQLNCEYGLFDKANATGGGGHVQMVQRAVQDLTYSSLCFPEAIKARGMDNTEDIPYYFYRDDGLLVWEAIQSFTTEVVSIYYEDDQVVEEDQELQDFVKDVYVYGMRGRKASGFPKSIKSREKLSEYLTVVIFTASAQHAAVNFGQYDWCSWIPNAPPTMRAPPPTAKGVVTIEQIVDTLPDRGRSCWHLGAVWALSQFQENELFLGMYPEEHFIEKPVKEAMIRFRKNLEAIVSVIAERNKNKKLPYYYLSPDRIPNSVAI
# Description: (§1) The compounds of this invention are potent inhibitors of 5-, 12-, and 15-lipoxygenases. An assay to determine 5-lipoxygenase activity was performed in incubations containing various concentrations of the test compound and the 20,000 g supernatant from 7.5 million homogenized RBL-1 cells. Reactions were initiated by addition of radiolabeled arachidonic acid and terminated by acidification and ether extraction. Reaction products were separated from nonconverted substrate by thin layer chromatography and measured by liquid scintillation spectroscopy. Inhibition of 5-lipoxygenase activity was calculated as the 50% intercept from linear regression analysis of percentage inhibition versus log concentration plots.
# 12-lipoxygenase = target: T2, 12-lipoxygenase (Homo sapiens, UniProt P18054); experiment: 12-lipoxygenase inhibition, enzyme obtained from human platelets; details: read-out: Percent Inhibition, 12-Lipoxygenase
# T2 construct: 12-lipoxygenase obtained from human platelets; from tissue; host or cells: human platelets
# T2 sequence (P18054 1-663): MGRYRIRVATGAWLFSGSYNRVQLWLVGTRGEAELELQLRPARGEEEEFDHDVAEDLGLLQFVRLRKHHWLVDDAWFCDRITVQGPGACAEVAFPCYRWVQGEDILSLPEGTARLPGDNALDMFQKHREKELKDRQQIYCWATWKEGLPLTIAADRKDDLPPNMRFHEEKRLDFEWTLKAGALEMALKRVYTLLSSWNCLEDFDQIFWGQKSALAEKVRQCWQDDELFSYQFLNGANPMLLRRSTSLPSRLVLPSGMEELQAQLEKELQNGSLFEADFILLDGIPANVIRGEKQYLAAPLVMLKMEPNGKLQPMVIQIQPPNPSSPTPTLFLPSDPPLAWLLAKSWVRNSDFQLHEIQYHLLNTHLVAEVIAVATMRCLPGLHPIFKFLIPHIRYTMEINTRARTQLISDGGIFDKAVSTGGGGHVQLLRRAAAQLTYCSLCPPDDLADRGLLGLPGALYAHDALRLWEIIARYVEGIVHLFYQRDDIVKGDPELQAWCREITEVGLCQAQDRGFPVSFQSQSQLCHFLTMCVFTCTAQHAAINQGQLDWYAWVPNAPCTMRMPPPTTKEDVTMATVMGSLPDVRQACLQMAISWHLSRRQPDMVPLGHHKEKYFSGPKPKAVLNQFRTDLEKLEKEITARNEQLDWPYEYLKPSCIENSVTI
# Description: as §1
# (§2) Inhibitory activities of the compounds of this invention against 12- and 15-lipoxygenase can be determined in the foregoing assay in which 12-lipoxygenase obtained from human platelets, or 15-lipoxygenase obtained from soybean, is substituted for the […] containing cell supernatant fraction.
# 15-lipoxygenase = target: T3, 15-lipoxygenase (Glycine max, UniProt P08170); experiment: 15-lipoxygenase inhibition, enzyme obtained from soybean; details: read-out: Percent Inhibition, 15-lipoxygenase
# T3 construct: 15-lipoxygenase obtained from soybean; from tissue; host or cells: soybean
# T3 sequence (P08170 1-839): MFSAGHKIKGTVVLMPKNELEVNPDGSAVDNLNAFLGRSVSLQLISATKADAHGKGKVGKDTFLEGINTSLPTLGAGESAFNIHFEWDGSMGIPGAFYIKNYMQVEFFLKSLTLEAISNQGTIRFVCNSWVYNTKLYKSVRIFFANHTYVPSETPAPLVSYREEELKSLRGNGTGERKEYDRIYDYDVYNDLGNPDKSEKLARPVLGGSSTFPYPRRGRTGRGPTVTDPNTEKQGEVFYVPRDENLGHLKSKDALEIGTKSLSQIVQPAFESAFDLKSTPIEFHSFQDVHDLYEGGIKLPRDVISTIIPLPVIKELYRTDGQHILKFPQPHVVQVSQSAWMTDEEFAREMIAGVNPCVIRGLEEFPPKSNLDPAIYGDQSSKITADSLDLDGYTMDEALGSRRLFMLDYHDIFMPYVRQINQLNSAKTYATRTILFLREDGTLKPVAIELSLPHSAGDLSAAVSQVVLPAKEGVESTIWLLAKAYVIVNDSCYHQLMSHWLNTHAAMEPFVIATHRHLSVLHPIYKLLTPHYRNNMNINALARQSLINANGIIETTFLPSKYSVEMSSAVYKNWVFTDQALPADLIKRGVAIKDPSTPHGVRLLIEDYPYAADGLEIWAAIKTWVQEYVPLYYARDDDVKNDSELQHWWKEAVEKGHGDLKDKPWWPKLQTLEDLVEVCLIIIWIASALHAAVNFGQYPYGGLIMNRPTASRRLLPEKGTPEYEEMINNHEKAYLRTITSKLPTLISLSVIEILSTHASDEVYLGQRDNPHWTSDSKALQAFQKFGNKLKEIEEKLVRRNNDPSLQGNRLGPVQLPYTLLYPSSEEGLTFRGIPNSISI
# Description: as §1, §2
SMILES,IC50 (5-lipoxygenase) [nM],inhibition at 10 µM (12-lipoxygenase) [%],inhibition at 100 µM (12-lipoxygenase) [%],inhibition at 10 µM (15-lipoxygenase) [%],inhibition at 100 µM (15-lipoxygenase) [%],"inhibition at 100 µM (5-lipoxygenase; @ 100 uM, read-out: percentage inhibition of 5-lipoxygenase) [%]","inhibition at 30 µM (5-lipoxygenase; @ 30 uM, read-out: percentage inhibition of 5-lipoxygenase) [%]"
"O=c1ccc2ccccc2n1O [Example 1, 1-hydroxyquinol-2-(1H)-one]",5300,93,98,59,95,,
"COc1ccc2c(c1)c(Cl)cc(=O)n2O [Example 5, 4-Chloro-6-methoxy-1-hydroxyquinol-2(1H)-one]",1600,,,,,,
"O=c1ccc2c([N+](=O)[O-])cccc2n1O [Example 6, 5-Nitro-1-hydroxyquinol-2(1H)-one]",3700,83,98,27,98,,
"Cc1ccc2c(ccc(=O)n2O)c1[N+](=O)[O-] [Example 7, 6-Methyl-5-nitro-1-hydroxyquinol-2(1H)-one]",2000,,,,,,
"Cc1ccc2c(ccc(=O)n2O)c1 [Example 9, 6-Methyl-1-hydroxyquinol-2-(1H)-one]",1100,,,,,,
"O=c1ccc2cc([N+](=O)[O-])ccc2n1O [Example 11, 6-Nitro-1-hydroxyquinol-2(1H)-one]",14000,67,90,2,32,,
"Cc1ccc2ccc(=O)n(O)c2c1 [Example 13, 7-Methyl-1-hydroxyquinol-2(1H)-one]",980,94,97,61,97,,
"O=c1ccc2c3ccccc3ccc2n1O [Example 14, 5,6-Benzo-1-hydroxyquinol-2(1H)-one]",840,,,,,,
"CC(C)c1cc2ccccc2n(O)c1=O [Example 16, 3-Isopropyl-1-hydroxy-quinol-2(1H)--one]",,93,98,40,93,,
"O=c1c2ccccc2ccn1O [Example 27, 2-hydroxyquinol-1(2H)-one]",6000,,,,,,
"O=c1c2ccccc2cc(O)n1O [Example 28, 2,3-Dihydroxyquinol-1(2H)-one]",,,,,,54,
"O=c1c2ccccc2c(Br)cn1O [Example 29, 4-Bromo-2-hydroxyquinol-1(2H)-one]",2600,89,96,43,94,,
"O=c1c2ccccc2c(-c2ccccc2)cn1O [Example 31, 4-Phenyl-2-hydroxyquinol-1(2H)-one]",450,95,99,14,50,,
"Cc1cccc2c(=O)n(O)ccc12 [Example 33, 5-Methyl-2-hydroxyquinol-2(1H)-one]",2400,,,,,,
COc1ccc2ccn(O)c(=O)c2c1 [Example 34],2500,90,98,20,45,,
O=c1c2ccccc2c(-c2ccccc2)c(-c2ccccc2)n1O [Example 35],1500,,,,,,

# The next lines start with the values.
IC50 (5-lipoxygenase) [nM],inhibition at 10 µM (12-lipoxygenase) [%],inhibition at 100 µM (12-lipoxygenase) [%],inhibition at 10 µM (15-lipoxygenase) [%],inhibition at 100 µM (15-lipoxygenase) [%],"inhibition at 100 µM (5-lipoxygenase; @ 100 uM, read-out: percentage inhibition of 5-lipoxygenase) [%]","inhibition at 30 µM (5-lipoxygenase; @ 30 uM, read-out: percentage inhibition of 5-lipoxygenase) [%]",SMILES
24000,66,94,5,14,,,"COC(=O)c1cc2ccccc2n(O)c1=O [Example 2, 3-Carbomethoxy-1-hydroxyquinol-2(1H)-one]"
4200,,,,,,,"O=c1c(Br)cc2ccccc2n1O [Example 3, 3-Bromo-1-hydroxyquinol-2-(1H)-one]"
1400,,,,,,,"Cc1cc(=O)n(O)c2ccccc12 [Example 4, 4-Methyl-1-hydroxyquinol-2(1H)-one]"
870,95,97,95,100,,,"O=c1ccc2cc(Cl)ccc2n1O [Example 8, 6-Chloro-1-hydroxyquinol-2(1H)-one]"
1500,90,97,62,94,,,"COc1ccc2c(ccc(=O)n2O)c1 [Example 10, 6-Methoxy-1-hydroxyquinol-2-(1H)-one]"
340,97,98,97,100,,,"O=c1ccc2cc(-c3ccccc3)ccc2n1O [Example 12, 6-Phenyl-1-hydroxyquinol-2(1H)-one]"
2500,96,98,13,60,,,"O=c1c2ccccc2c2ccccc2n1O [Example 15, 3,4-Benzo-1-hydroxyquinol-2(1H)-one]"
,54,83,10,12,,32,"O=c1c2ccccc2c([N+](=O)[O-])cn1O [Example 30, 4-Nitro-2-hydroxyquinol-1(2H)-one]"
3900,,,,,,,"Cc1cn(O)c(=O)c2ccccc12 [Example 32, 4-Methyl-2-hydroxy-quinol-1(2H)-one]"
